# In patent publication US20120184517A1, “TREATMENT OF DISEASES WITH ALTERED SMOOTH MUSCLE CONTRACTILITY” (priority 2009, published 2012):
# How the values were obtained:
# [1] = target: c-Jun N-terminal kinase 1 α1 (JNK1 α1) (Homo sapiens, UniProt P45983); details: 20 μM; cited from earlier work
# 3T3-L1 adipocytes = details: read-out: IC50 of insulin-induced glucose uptake; cited from earlier work
# Akt = Akt (Homo sapiens, UniProt P31749); details: 20 μM; cited from earlier work
# [2] = target: T1, BKCa channel α (mSlo) and β1 subunits (Mus musculus, UniProt Q08460); assay: Whole cell recording of HEK cells co-expressing α and β1 subunits; format: cell-based; details: HEK293 cells expressing both mSlo and β1 subunit
# T1 construct: expressed in transfected cells; host or cells: HEK293
# T1 sequence (Q08460 whole entry): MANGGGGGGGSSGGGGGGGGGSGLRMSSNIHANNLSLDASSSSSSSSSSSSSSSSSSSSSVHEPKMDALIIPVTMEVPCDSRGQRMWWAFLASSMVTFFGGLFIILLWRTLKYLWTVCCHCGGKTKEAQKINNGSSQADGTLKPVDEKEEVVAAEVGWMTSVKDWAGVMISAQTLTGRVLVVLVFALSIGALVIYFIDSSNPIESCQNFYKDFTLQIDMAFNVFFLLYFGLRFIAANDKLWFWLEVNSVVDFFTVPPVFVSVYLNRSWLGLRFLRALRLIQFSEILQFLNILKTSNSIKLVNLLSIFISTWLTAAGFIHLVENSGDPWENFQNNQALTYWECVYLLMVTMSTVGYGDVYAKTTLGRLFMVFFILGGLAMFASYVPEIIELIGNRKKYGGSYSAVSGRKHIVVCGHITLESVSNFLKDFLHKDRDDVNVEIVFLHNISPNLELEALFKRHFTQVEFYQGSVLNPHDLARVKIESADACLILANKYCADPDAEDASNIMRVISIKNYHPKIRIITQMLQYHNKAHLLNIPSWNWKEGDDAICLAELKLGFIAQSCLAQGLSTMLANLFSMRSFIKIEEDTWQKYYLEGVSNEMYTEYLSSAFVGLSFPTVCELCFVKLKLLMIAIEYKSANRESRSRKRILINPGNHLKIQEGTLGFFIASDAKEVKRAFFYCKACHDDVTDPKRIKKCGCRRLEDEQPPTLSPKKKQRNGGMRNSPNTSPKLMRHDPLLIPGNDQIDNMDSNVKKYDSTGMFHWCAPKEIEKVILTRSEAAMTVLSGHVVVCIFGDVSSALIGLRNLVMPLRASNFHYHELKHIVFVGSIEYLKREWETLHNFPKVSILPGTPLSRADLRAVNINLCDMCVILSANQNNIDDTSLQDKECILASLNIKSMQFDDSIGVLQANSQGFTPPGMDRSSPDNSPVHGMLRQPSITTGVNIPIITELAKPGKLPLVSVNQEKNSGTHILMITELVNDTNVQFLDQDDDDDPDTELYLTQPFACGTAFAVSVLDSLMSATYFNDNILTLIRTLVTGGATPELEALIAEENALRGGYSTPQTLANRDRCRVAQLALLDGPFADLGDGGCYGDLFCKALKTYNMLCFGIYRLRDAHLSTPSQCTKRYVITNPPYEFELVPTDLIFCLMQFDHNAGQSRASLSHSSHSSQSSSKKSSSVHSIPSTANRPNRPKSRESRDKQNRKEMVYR
# Protocol: (§1) Current was monitored with a ramp protocol; holding potential −60 mV, with ramp from −80 mV to +150 mV over 500 ms. Extracellular application of NS-1619 (10 μM) increased current as previously described (Olesen, et al., Selective activation of Ca^2+-dependent K^+ channels by novel benzimidazolone. Eur. J. Pharmacol., 1994. 251(1):53-9). […] Analysis was performed using tail analysis with normalization as previously described (Xia, et al., Multiple regulatory sites in large-conductance calcium-activated potassium channels. Nature, 2002. 418(6900):880-4). […] Identification of the BKCa channel was determined by conductance and inhibition by iberiotoxin and TEA. […] Murine femoral arterial rings were isolated and placed in a wire myograph. […] The figures shown are representative of 4 similar experiments. Error bars are standard error of the mean (SEM). Asterisk (*) indicates p<0.001.
# [3] = target: glutamate-aspartate transporter (GLAST) (Homo sapiens, UniProt P43003); details: cited from earlier work
# Sequence of glutamate-aspartate transporter (GLAST) (P43003 whole entry, species assumed): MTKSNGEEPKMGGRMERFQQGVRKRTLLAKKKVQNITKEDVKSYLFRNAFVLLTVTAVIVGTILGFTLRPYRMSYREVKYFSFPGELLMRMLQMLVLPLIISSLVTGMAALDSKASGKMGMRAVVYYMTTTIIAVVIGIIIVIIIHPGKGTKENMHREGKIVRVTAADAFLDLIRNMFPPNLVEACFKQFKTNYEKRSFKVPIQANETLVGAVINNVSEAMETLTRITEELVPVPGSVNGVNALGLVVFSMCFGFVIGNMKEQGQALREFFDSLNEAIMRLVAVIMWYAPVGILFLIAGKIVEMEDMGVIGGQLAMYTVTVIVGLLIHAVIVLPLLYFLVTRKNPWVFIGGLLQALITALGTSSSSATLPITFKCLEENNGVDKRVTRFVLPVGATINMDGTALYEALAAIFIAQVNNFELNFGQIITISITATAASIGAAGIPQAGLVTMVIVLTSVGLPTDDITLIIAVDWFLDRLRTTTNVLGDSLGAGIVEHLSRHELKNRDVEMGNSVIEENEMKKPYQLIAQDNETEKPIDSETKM
# PKCα = PKCα (Homo sapiens, UniProt P17252); details: rottlerin 20 μM, 0.1 mM ATP, phosphatidylserine; cited from earlier work
# PKA = PKA (Homo sapiens, UniProt P17612); details: 20 μM; cited from earlier work
# [4] = target: glycogen synthase kinase 3β (Homo sapiens, UniProt P49841); details: 20 μM; cited from earlier work
# Sequence of glycogen synthase kinase 3β (P49841 whole entry): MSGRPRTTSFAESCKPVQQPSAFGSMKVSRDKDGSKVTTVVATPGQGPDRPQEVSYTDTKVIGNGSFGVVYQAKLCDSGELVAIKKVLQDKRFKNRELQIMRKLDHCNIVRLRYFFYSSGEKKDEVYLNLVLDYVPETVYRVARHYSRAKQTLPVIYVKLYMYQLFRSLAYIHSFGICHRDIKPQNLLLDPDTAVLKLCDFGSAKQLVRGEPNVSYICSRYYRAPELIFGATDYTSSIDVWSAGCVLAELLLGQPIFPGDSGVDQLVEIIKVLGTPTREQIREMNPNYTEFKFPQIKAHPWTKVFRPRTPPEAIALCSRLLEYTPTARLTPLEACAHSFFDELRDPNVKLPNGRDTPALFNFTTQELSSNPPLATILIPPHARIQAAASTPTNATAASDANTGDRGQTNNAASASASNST
# recombinant BK (mSlo1) = target: T2, recombinant BK (mSlo1) (Mus musculus, UniProt Q08460); assay: Cell-free outside-out/inside-out patch single channel recordings from HEK cells; format: biochemical, murine
# T2 construct: expressed in transfected cells
# T2 sequence (Q08460 whole entry): as the sequence (Q08460 whole entry) above
# Protocol: Ca^2+ was maintained at 0 (virtual; actual <20 nM) through dialysis using a patch pipette.
# PKCδ = PKCδ (Homo sapiens, UniProt Q05655); details: cited from earlier work
# Sequence of PKCδ (Q05655 whole entry): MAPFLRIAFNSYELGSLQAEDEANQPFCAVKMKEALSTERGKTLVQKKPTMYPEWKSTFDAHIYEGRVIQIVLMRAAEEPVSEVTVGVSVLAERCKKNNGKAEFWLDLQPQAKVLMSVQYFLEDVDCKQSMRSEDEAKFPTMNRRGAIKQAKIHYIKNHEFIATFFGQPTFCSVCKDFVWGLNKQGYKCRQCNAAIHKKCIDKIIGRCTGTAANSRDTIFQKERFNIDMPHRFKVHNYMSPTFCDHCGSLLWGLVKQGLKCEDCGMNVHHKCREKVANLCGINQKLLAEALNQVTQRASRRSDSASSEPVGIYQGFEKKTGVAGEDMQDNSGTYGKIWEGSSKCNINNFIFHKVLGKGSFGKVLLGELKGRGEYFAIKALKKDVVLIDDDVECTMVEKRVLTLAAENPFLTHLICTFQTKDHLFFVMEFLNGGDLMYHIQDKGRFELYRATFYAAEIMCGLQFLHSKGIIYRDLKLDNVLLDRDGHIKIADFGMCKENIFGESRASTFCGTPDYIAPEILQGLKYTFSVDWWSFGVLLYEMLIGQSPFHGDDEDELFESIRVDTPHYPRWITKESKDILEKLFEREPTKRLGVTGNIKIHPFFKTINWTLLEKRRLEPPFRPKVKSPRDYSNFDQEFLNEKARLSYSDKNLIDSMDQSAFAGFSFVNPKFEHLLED
# [5] = target: T3, BK currents in tracheal smooth muscle (Mus musculus, UniProt Q08460); assay: Whole cell patch clamp of acutely isolated tracheal smooth muscle cells; format: cell-based, murine; design: unit of the concentration uncertain; details: rottlerin (1 (unit uncertain)), FIG. 11A
# T3 construct: murine tracheal smooth muscle cells were acutely isolated and whole cell patch clamped; endogenous in cells; host or cells: acutely isolated murine tracheal smooth muscle cells
# T3 sequence (Q08460 whole entry): as the sequence (Q08460 whole entry) above
# T3 sequence (Q8CAE3 whole entry partner): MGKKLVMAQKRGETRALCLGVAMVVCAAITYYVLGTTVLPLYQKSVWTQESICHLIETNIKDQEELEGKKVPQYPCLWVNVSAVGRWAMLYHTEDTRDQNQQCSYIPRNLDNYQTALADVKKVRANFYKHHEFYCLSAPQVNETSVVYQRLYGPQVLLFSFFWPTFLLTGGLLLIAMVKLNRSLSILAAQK
# Description: In this experiment, murine tracheal smooth muscle cells were acutely isolated and whole cell patch clamped as previously described (Zakharov, S. et al., (2005) J Biol Chem 280, 30882-30887).
# Murine tracheal smooth muscle cells were isolated using the following protocol. Trachea were removed, cut longitudinally, the epithelium removed (brushing with sterile cotton bud) and the cartilage removed by cutting. The isolated trachea were dissected in culture medium and cut into several pieces (1-2 mm^2). After addition of 0.5 mg/ml papain (Roche, Nutley, N.J.) and 1 mg/ml dithiothreitol, the cells were dissociated at 37° C. for 20 minutes, gently shaking, followed by the addition of 0.1 mg/ml liberase enzyme 2 (Roche, Nutley, N.J.) for 30 minutes at 37° C. (5% CO2). The suspension was then pipetted gently several times to disburse cells, the cell suspension strained via a nylon cell strainer, and the suspension was gently triturated to disburse single cells. The cell suspension was then centrifuged at 700×g for 5 minutes and the pellet resuspended in 500 μl Krebs solution. The cells were plated onto laminin-coated tissue culture dishes. BK currents were recorded using whole-cell and outside-out macropatches.
# [6] = test system: CD4+ and CD8+ human T lymphocyte; details: dose-dependent; cited from earlier work
# [7] = test system: murine femoral arterial rings; format: cell-based
# Protocol: as §1, with “ms.” for “ms. Extracellular application of NS-1619 (10 μM) increased current as previously described (Olesen, et al., Selective activation of Ca^2+-dependent K^+ channels by novel benzimidazolone. Eur. J. Pharmacol., 1994. 251(1):53-9).”
# [8] = target: mitogen- and stress-activated protein kinase 1 (MSK-1) (Homo sapiens, UniProt O75582); details: 20 μM; cited from earlier work
# Sequence of mitogen- and stress-activated protein kinase 1 (MSK-1) (O75582 whole entry, species assumed): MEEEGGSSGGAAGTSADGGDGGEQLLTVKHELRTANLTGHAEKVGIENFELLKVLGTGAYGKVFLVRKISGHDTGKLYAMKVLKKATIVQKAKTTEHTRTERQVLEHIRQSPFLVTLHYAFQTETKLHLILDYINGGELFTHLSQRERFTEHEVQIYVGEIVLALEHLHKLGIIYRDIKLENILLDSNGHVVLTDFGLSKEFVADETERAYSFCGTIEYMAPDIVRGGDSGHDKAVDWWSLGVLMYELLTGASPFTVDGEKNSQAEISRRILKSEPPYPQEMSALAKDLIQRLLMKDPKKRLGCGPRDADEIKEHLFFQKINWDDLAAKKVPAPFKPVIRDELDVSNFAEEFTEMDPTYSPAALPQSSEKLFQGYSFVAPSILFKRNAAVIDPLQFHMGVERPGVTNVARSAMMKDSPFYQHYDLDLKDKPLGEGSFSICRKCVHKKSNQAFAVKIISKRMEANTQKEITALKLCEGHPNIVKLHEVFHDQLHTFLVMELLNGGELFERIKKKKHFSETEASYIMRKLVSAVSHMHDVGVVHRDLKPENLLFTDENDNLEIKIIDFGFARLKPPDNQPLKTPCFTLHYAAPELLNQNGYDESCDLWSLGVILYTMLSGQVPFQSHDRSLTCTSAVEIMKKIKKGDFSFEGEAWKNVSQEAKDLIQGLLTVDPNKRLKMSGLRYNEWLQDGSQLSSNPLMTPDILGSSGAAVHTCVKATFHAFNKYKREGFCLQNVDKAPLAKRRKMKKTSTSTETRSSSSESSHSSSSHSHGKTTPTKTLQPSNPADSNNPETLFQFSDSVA
# [9] = test system: canine subarachnoid hemorrhage model; details: 5 μM injected into the cistera magna; cited from earlier work
# rats = details: 10-20 mg/kg/day×6 days; cited from earlier work
# [10] = test system: Jurkat T cells and purified human CD4+ T cells; details: cited from earlier work
# Sequence of c-Jun N-terminal kinase 1 α1 (JNK1 α1) (P45983 1-384 isoform P45983-2, species assumed): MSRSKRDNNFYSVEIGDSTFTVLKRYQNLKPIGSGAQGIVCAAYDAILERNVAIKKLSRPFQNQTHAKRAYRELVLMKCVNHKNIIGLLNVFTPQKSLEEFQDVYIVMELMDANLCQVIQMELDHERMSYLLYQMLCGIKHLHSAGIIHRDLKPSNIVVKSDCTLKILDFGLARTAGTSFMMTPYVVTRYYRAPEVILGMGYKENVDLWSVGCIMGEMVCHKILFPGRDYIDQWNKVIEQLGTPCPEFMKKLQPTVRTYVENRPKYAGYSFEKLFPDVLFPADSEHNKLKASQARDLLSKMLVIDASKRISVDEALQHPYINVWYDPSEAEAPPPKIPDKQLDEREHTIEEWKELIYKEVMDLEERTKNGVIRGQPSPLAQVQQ
structure (smiles),measurement,setting,value
"CC(=O)c1c(O)c(C)c(O)c(Cc2c(O)c3c(c(C(=O)/C=C/c4ccccc4)c2O)OC(C)(C)C=C3)c1O [rottlerin, 5,7-dihydroxy-2,2-dimethyl-6-(2,4,6-trihydroxy-3-methyl-5-acetylbenzyl)-8-cinnamoyl-I,2-chromene]",inhibition,[1],51%
same,IC50,3T3-L1 adipocytes,10 µM
same,inhibition,Akt,73%
same,channel activation,[2],activated the channel
same,capacity of GLAST,[3],decrease the capacity
same,effect on PKCα activity,PKCα,virtually no effect
same,inhibition,PKA,83%
same,inhibition,[4],87%
same,channel open probability,"recombinant BK (mSlo1); 0.5 μM rottlerin, outside-out patches from HEK cells, absence of ATP",significant increase
same,experiments in which activation was found,"recombinant BK (mSlo1); rottlerin 0.5 μM bath application, outside-out patch, +30 mV, n=18",100%
same,channel conductance,"recombinant BK (mSlo1); rottlerin 0.5 μM, outside-out, 0 Ca2+",does not significantly change
same,IC50,PKCδ,3 to 6 µM
same,BK currents,[5],significantly activated
same,T lymphocyte proliferation,[6],inhibits
same,PE induced constriction of the vessel,[7]; rottlerin 0.5 μM (FIG. 7D legend),significantly inhibited
same,effect on phenylephrine mediated contraction,[7]; rottlerin 1 μM,no significant effect
same,reduction of phenylephrine mediated contraction,[7]; rottlerin 4 μM,more than 50%
same,inhibition,[8],62%
same,cerebral vasospasm,[9],inhibited the initial phase of cerebral vasospasm
same,fertility rate,rats,reduce the fertility rate
same,PMA-induced phosphorylation of Erk-1 and Erk-2,[10],blocked
